This note sets out measurements from patent publication US20230365592A1 (Agios Pharmaceuticals, Inc., priority 2022, published 2023).

For one assay, the target named is T1, human PAH with the R408W mutation (Homo sapiens, UniProt P00439, R408W).
T1 construct: expressed in transfected cells
T1 sequence (P00439 1-452 R408W): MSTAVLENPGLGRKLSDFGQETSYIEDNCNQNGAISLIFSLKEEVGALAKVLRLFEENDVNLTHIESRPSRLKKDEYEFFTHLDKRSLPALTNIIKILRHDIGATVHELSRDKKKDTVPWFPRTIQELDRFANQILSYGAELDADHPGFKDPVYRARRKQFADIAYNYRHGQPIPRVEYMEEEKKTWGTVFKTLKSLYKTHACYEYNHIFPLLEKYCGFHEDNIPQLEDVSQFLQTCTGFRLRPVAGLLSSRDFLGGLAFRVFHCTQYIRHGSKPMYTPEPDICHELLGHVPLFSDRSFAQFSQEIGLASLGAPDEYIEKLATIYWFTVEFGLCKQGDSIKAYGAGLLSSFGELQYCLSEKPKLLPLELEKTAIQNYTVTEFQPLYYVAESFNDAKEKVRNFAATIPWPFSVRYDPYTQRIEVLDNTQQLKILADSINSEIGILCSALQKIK
Nature of the assay: Cell Based Phenylalanine Flux Assay.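 Note: after compound treatment, cells received sepiapterin plus isotope-labelled Phenylalanine for 4 hours, then labelled Tyrosine in the medium was quantified, 10-point 2-fold dilution series run in duplicate.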 To be noted: A375 cells expressing R408W PAH; 24 hrs with compound, then 20 µM sepiapterin and 800 µM 13C9,15N-Phenylalanine for 4 hours; 13C-Tyrosine by LC-MS; average where tested multiple times; read-out: AC50.
As usually defined, the AC50 is the concentration at which the activity in the assay is half-maximal. In the case of `Cn1cncc1-c1nnc(C(=O)N2CCc3[nH]cnc3C2c2cc3c(C(F)F)cccn3n2)o1` (centres unmarked), the concentration at half-maximal activity (AC50) lay within 1000 to 5000 nM. Regarding `COc1cccn2nc([C@@H]3c4nc[nH]c4CCN3c3nnc(C)o3)cc12` (single isomer, unassigned), the AC50 is 1000 to 5000 nM. Consider `Cc1cccn2nc([C@@H]3c4nc[nH]c4CCN3c3nnc(C4CC(F)(F)C4)o3)cc12` (single isomer, unassigned), for which the AC50 was 1000 to 5000 nM.

With `Cn1nc(C(C)(C)C)cc1C(=O)N1CCc2[nH]cnc2C1c1cc2c(F)cccn2n1` (centres unmarked), the AC50 was 1000 to 5000 nM. For the molecule `Fc1cccn2nc(C3c4nc[nH]c4CCN3c3nnc(C4CC(F)(F)C4)o3)cc12` (centres unmarked), the concentration at half-maximal activity (AC50) lay in the range of 1000 to 5000 nM.

For `COc1ccc2c(C(=O)N3CCc4[nH]cnc4C3c3cc4cccc(C(F)F)n4n3)cnn2c1` (centres unmarked), the AC50 was > 5000 nM. Still for that read-out and setting: the figure for `Cc1cccn2nc(C3c4nc[nH]c4CCN3c3nnc(N4CCOCC4)o3)cc12` (centres unmarked) is 1000 to 5000 nM.

The assay is the same for the next values; noted with them: A375 cells expressing human PAH R408W; 24 hrs compound incubation; 13C-Tyrosine by LC-MS; average where tested multiple times; read-out: AC50.
On to `FC(F)Oc1cccn2nc([C@@H]3c4nc[nH]c4CCN3c3nnc(C(F)F)o3)cc12` [Example 2153, (S)-2-(4-(4-(difluoromethoxy)pyrazolo[1,5-a]pyridin-2-yl)-1,4,6,7-tetrahydro-5H-imidazo[4,5-c]pyridin-5-yl)-5-(difluoromethyl)-1,3,4-oxadiazole], for which the AC50 was < 500 nM. On the same count and under the same terms, with `COc1cccn2nc([C@@H]3c4nc[nH]c4CCN3c3nnc(C(F)F)o3)cc12` [Example 2151, (S)-2-(difluoromethyl)-5-(4-(4-methoxypyrazolo[1,5-a]pyridin-2-yl)-1,4,6,7-tetrahydro-5H-imidazo[4,5-c]pyridin-5-yl)-1,3,4-oxadiazole] the figure was < 500 nM; with `Nc1cnc(N2CCc3[nH]cnc3[C@@H]2c2cc3c(Cl)cccn3n2)nc1` [Example 1872, (R)-2-(4-(4-chloropyrazolo[1,5-a]pyridin-2-yl)-1,4,6,7-tetrahydro-5H-imidazo[4,5-c]pyridin-5-yl)pyrimidin-5-amine], > 5000 nM; with `Cc1cccc(-c2nnc(N3CCc4[nH]cnc4[C@H]3c3cc4c(C)cccn4n3)o2)n1` [Example 2345, (S)-2-(4-(4-methylpyrazolo[1,5-a]pyridin-2-yl)-1,4,6,7-tetrahydro-5H-imidazo[4,5-c]pyridin-5-yl)-5-(6-methylpyridin-2-yl)-1,3,4-oxadiazole], 500 to 1000 nM.

Take `O=C(c1nc2ccccc2s1)N1CCc2[nH]cnc2[C@@H]1c1cc2ccccn2n1` [Example 2001, (R)-benzo[d]thiazol-2-yl(4-(pyrazolo[1,5-a]pyridin-2-yl)-1,4,6,7-tetrahydro-5H-imidazo[4,5-c]pyridin-5-yl)methanone]: the AC50 is > 5000 nM. On to `Cn1cc(-c2nnc(C(=O)N3CCc4[nH]cnc4[C@H]3c3cc4ccccn4n3)s2)cn1` [Example 2045, (S)-(5-(1-methyl-1H-pyrazol-4-yl)-1,3,4-thiadiazol-2-yl)(4-(pyrazolo[1,5-a]pyridin-2-yl)-1,4,6,7-tetrahydro-5H-imidazo[4,5-c]pyridin-5-yl)methanone], for which the AC50 was 500 to 1000 nM. The same measure, in the same setting: with `Cn1ccc(-c2nnc(C(=O)N3CCc4[nH]cnc4[C@H]3c3cc4c(C5CC5)cccn4n3)o2)n1` [Example 1900, (S)-(4-(4-cyclopropylpyrazolo[1,5-a]pyridin-2-yl)-1,4,6,7-tetrahydro-5H-imidazo[4,5-c]pyridin-5-yl)(5-(1-methyl-1H-pyrazol-3-yl)-1,3,4-oxadiazol-2-yl)methanone] the figure was < 500 nM; with `COc1ccc2c(C(=O)N3CCc4[nH]cnc4[C@@H]3c3cc4c(C)cccn4n3)cnn2c1` [Example 2451, (R)-(6-methoxypyrazolo[1,5-a]pyridin-3-yl)(4-(4-methylpyrazolo[1,5-a]pyridin-2-yl)-6,7-dihydro-1H-imidazo[4,5-c]pyridin-5(4H)-yl)methanone], > 5000 nM.

Staying with this assay, now noted: A375 cells expressing human R408W PAH; 24 hrs compound incubation; 13C-Tyrosine by LC-MS; average where tested multiple times; read-out: AC50.
Consider `Clc1cccn2nc([C@@H]3c4nc[nH]c4CCN3c3ncccn3)cc12` [Example 1664, (S)4-(4-chloropyrazolo[1,5-a]pyridin-2-yl)-5-(pyrimidin-2-yl)-4,5,6,7-tetrahydro-1H-imidazo[4,5-c]pyridine], for which the AC50 is < 500 nM. The same measure, in the same setting: the figure for `Cn1cc(-c2nnc(C(=O)N3CCc4[nH]cnc4[C@H]3c3cc4c(OC(F)(F)F)cccn4n3)o2)cn1` [Example 1682, (S)-(5-(1-methyl-1H-pyrazol-4-yl)-1,3,4-oxadiazol-2-yl)(4-(4-(trifluoromethoxy)pyrazolo[1,5-a]pyridin-2-yl)-6,7-dihydro-1H-imidazo[4,5-c]pyridin-5(4H)-yl)methanone] is < 500 nM. Take `O=C(c1nnc(C2CC2)o1)N1CCc2[nH]cnc2[C@H]1c1cc2cccc(C(F)(F)F)n2n1` [Example 1140, (S)-(5-cyclopropyl-1,3,4-oxadiazol-2-yl)(4-(7-(trifluoromethyl)pyrazolo[1,5-a]pyridin-2-yl)-6,7-dihydro-1H-imidazo[4,5-c]pyridin-5(4H)-yl)methanone]: the AC50 is 500 to 1000 nM.

Take `Cc1c(-c2nnc(C(=O)N3CCc4[nH]cnc4[C@@H]3c3cc4cccc(C)n4n3)o2)cnn1C` [Example 1189, (R)-(5-(1,5-dimethyl-1H-pyrazol-4-yl)-1,3,4-oxadiazol-2-yl)(4-(7-methylpyrazolo[1,5-a]pyridin-2-yl)-6,7-dihydro-1H-imidazo[4,5-c]pyridin-5(4H)-yl)methanone]: the AC50 was 1000 to 5000 nM. With `Cc1c(-c2nnc(C(=O)N3CCc4[nH]cnc4[C@@H]3c3cc4cccc(F)n4n3)o2)cnn1C` [Example 1463, (R)-(5-(1,5-dimethyl-1H-pyrazol-4-yl)-1,3,4-oxadiazol-2-yl)(4-(7-fluoropyrazolo[1,5-a]pyridin-2-yl)-6,7-dihydro-1H-imidazo[4,5-c]pyridin-5(4H)-yl)methanone], the AC50 fell in the range of 1000 to 5000 nM. Still for that read-out and setting: with `Cc1ccc(-c2nnc(C(=O)N3CCc4[nH]cnc4[C@H]3c3cc4c(F)cccn4n3)o2)nc1` [Example 877, (S)-(4-(4-fluoropyrazolo[1,5-a]pyridin-2-yl)-6,7-dihydro-1H-imidazo[4,5-c]pyridin-5(4H)-yl)(5-(5-methylpyridin-2-yl)-1,3,4-oxadiazol-2-yl)methanone] the figure was < 500 nM; with `O=C(c1oc(C2CC2)nc1C(F)F)N1CCc2[nH]cnc2[C@H]1c1cc2ccccn2n1` [Example 632, (S)-(2-cyclopropyl-4-(difluoromethyl)oxazol-5-yl)(4-(pyrazolo[1,5-a]pyridin-2-yl)-6,7-dihydro-1H-imidazo[4,5-c]pyridin-5(4H)-yl)methanone], < 500 nM. Turning to `COc1ccc(-c2nnc(C(=O)N3CCc4[nH]cnc4[C@@H]3c3cc4cccc(Cl)n4n3)o2)nc1` [Example 1096, (R)-(4-(7-chloropyrazolo[1,5-a]pyridin-2-yl)-6,7-dihydro-1H-imidazo[4,5-c]pyridin-5(4H)-yl)(5-(5-methoxypyridin-2-yl)-1,3,4-oxadiazol-2-yl)methanone], the AC50 was > 5000 nM. Turning to `O=C(c1nnc(C2CC2)o1)N1CCc2[nH]cnc2[C@@H]1c1cc2cccc(C(F)F)n2n1` [Example 1391, (R)-(5-cyclopropyl-1,3,4-oxadiazol-2-yl)(4-(7-(difluoromethyl)pyrazolo[1,5-a]pyridin-2-yl)-6,7-dihydro-1H-imidazo[4,5-c]pyridin-5(4H)-yl)methanone], the AC50 lay within 1000 to 5000 nM. `O=C(c1ccnn1C(F)F)N1CCc2[nH]cnc2[C@H]1c1cc2ccc(C(F)(F)F)cn2n1` [Example 1138, (S)-(1-(difluoromethyl)-1H-pyrazol-5-yl)(4-(6-(trifluoromethyl)pyrazolo[1,5-a]pyridin-2-yl)-6,7-dihydro-1H-imidazo[4,5-c]pyridin-5(4H)-yl)methanone]: the AC50 was < 500 nM. The same measure, in the same setting: the figure for `Cc1cccc2cc([C@H]3c4nc[nH]c4CCN3C(=O)c3nnc(C4CC4)o3)nn12` [Example 941, (R)-(5-cyclopropyl-1,3,4-oxadiazol-2-yl)(4-(7-methylpyrazolo[1,5-a]pyridin-2-yl)-6,7-dihydro-1H-imidazo[4,5-c]pyridin-5(4H)-yl)methanone] is > 5000 nM; for `O=C(c1oc(C2(O)CC2)nc1C(F)F)N1CCc2[nH]cnc2[C@H]1c1cc2ccccn2n1` [Example 994, (S)-(4-(difluoromethyl)-2-(1-hydroxycyclopropyl)oxazol-5-yl)(4-(pyrazolo[1,5-a]pyridin-2-yl)-6,7-dihydro-1H-imidazo[4,5-c]pyridin-5(4H)-yl)methanone] it is < 500 nM; for `Cn1cc(-c2nnc(C(=O)N3CCc4[nH]cnc4[C@H]3c3cc4c(C(F)(F)F)cccn4n3)o2)cn1` [Example 828, (S)-(5-(1-methyl-1H-pyrazol-4-yl)-1,3,4-oxadiazol-2-yl)(4-(4-(trifluoromethyl)pyrazolo[1,5-a]pyridin-2-yl)-6,7-dihydro-1H-imidazo[4,5-c]pyridin-5(4H)-yl)methanone] it is < 500 nM. As to `CC(C)(F)c1nnc(C(=O)N2CCc3[nH]cnc3[C@@H]2c2cc3cccc(Cl)n3n2)o1` [Example 968, (R)-(4-(7-chloropyrazolo[1,5-a]pyridin-2-yl)-6,7-dihydro-1H-imidazo[4,5-c]pyridin-5(4H)-yl)(5-(2-fluoropropan-2-yl)-1,3,4-oxadiazol-2-yl)methanone], the concentration at half-maximal activity (AC50) is 1000 to 5000 nM.
